Measured values published in patent US20070128217A1 (priority 2003, published 2007).

Assays:
[1] = system: antibodies in sera from SARS patients (sera 1a, 1b, 2, 6, 37, 62, London, SARS-yellow, SARS-green); format: binding, human; set-up: Binding of serum 6 to linear peptides of protein X1 of SARS-CoV Urbani / Binding of serum 37 to linear peptides of protein X1 of SARS-CoV Urbani / Binding of serum 6 to looped/cyclic peptide (PEPSCAN-ELISA) / Binding of serum 37 to looped/cyclic peptide (PEPSCAN-ELISA) / Binding of serum 37 to looped/cyclic peptides of protein X1 of SARS-CoV Urbani / Binding of serum 6 to linear peptides of protein X2 / Binding of serum 37 to linear peptides of protein X2 / Binding of serum 37 to looped/cyclic peptides of protein X2 of SARS-CoV Urbani / Binding of serum 6 to linear peptides of protein M of SARS-CoV Urbani / Binding of serum 37 to linear peptides of protein M of SARS-CoV Urbani / Binding of serum 6 to looped/cyclic peptides of protein M of SARS-CoV Urbani / Binding of serum 37 to looped/cyclic peptides of protein M of SARS-CoV Urbani / Binding of serum 6 to linear peptides of protein X3 of SARS-CoV Urbani / Binding of serum 37 to linear peptides of protein X3 of SARS-CoV Urbani / Binding of serum 37 to looped/cyclic peptides of protein X3 of SARS-CoV Urbani / Binding of serum 6 to linear peptides of protein X4 of SARS-CoV Urbani / Binding of serum 37 to linear peptides of protein X4 of SARS-CoV Urbani / Binding of serum 37 to looped/cyclic peptides of protein X4 of SARS-CoV Urbani / Binding of serum 6 to linear peptides of protein X5 of SARS-CoV Urbani / Binding of serum 37 to linear peptides of protein X5 of SARS-CoV Urbani / Binding of serum 37 to looped/cyclic peptides of protein X5 of SARS-CoV Urbani / Binding of serum 6 to linear peptides of protein N of SARS-CoV Urbani / Binding of serum 37 to linear peptides of protein N of SARS-CoV Urbani / Binding of serum 6 to linear peptide (PEPSCAN-ELISA) / Binding of serum 1a to looped/cyclic peptides of protein N of SARS-CoV Urbani / Binding of serum 1b to looped/cyclic peptides of protein N of SARS-CoV Urbani / Binding of serum 2 to looped/cyclic peptides of protein N of SARS-CoV Urbani / Binding of serum 6 to looped/cyclic peptides of protein N of SARS-CoV Urbani / Binding of serum 37 to looped/cyclic peptides of protein N of SARS-CoV Urbani / Binding of serum 62 to looped/cyclic peptides of protein N of SARS-CoV Urbani / Binding of serum London to looped/cyclic peptides of protein N of SARS-CoV Urbani / Binding of serum SARS-green to looped/cyclic peptides of protein N of SARS-CoV Urbani: unit not given here
[2] = system: control sera (pooled serum of ten healthy LUMC hospital workers; commercial negative donor pooled serum from the Dutch bloodbank); format: binding, human; set-up: Binding of Control serum LUMC to linear peptides / Binding of Control serum Blood-bank to linear peptides / Binding of Control serum LUMC to looped peptides / Binding of Control Serum Blood-Bank to Looped peptides / Binding of Control serum LUMC to linear peptides of the protein M of SARS-CoV Urbani / Binding of Control serum Blood-bank to linear peptides of the protein M of SARS-CoV Urbani / Binding of Control serum LUMC to looped peptides of the protein M of SARS-CoV Urbani / Binding of Control Serum Blood-Bank to Looped peptides of the protein M of SARS-CoV Urbani: unit not given here
[3] = system: rabbit serum obtained by immunizing a rabbit with the SARS-CoV strain Frankfurt 1; format: binding; set-up: Binding of a rabbit serum to linear peptides / Binding of a rabbit serum to looped peptides / Rabbit serum linear peptides / Rabbit serum looped peptides / Binding of a rabbit serum to linear peptides of protein N of SARS-CoV Urbani (Rabbit serum linear peptides) / Binding of a rabbit serum to looped/cyclic peptides of protein N of SARS-CoV Urbani (Rabbit serum looped peptides): unit not given here
[4] = system: recombinant human anti-SARS-CoV antibody 03-018; format: binding; set-up: Binding of antibody 03-018 to linear peptides of the N protein of SARS-CoV Urbani / Binding of antibody 03-018 to looped/cyclic peptides of the N protein of SARS-CoV Urbani: unit not given here

In the case of FYAEGSRGGSQASSR, the “Binding of serum 1a to linear peptide (PEPSCAN-ELISA)” value [1] is reported as 0.3, the “Binding of serum 1a to looped/cyclic peptides of protein N of SARS-CoV Urbani” value [1] is reported as 0.3 and the “Binding of serum 1b to linear peptide (PEPSCAN-ELISA)” value [1] is reported as 0.2. The “Binding of serum 1b to looped/cyclic peptides of protein N of SARS-CoV Urbani” value [1] was 0.2, the “Binding of serum 2 to linear peptide (PEPSCAN-ELISA)” value [1] was 0.2 and the “Binding of serum 2 to looped/cyclic peptides of protein N of SARS-CoV Urbani” value [1] was 0.4. The “Binding of serum 6 to linear peptide (PEPSCAN-ELISA)” value [1] was 0.3, the “Binding of serum 6 to looped/cyclic peptides of protein N of SARS-CoV Urbani” value [1] was 0.3 and the “Binding of serum 37 to linear peptide (PEPSCAN-ELISA)” value [1] was 0.7. For the same sequence, the “Binding of serum 37 to looped/cyclic peptides of protein N of SARS-CoV Urbani” value [1] was 0.6, the “Binding of serum 62 to linear peptide (PEPSCAN-ELISA)” value [1] was 0.8 and the “Binding of serum 62 to looped/cyclic peptides of protein N of SARS-CoV Urbani” value [1] was 0.6. The “Binding of serum London to linear peptide (PEPSCAN-ELISA)” value [1] was 0.5, the “Binding of serum London to looped/cyclic peptides of protein N of SARS-CoV Urbani” value [1] was 0.4 and the “Binding of serum SARS-green to linear peptide (PEPSCAN-ELISA)” value [1] was 0.4. For the same sequence, the “Binding of serum SARS-green to looped/cyclic peptides of protein N of SARS-CoV Urbani” value [1] was 0.4, the “Binding of serum SARS-yellow to linear peptide (PEPSCAN-ELISA)” value [1] was 0.6 and the “Binding of serum SARS-yellow to looped/cyclic peptides of protein N of SARS-CoV Urbani” value [1] was 0.3. The “Binding of Control Serum Blood-Bank to Looped peptides” value [2] was 0.6, the “Binding of Control serum Blood-bank to linear peptides” value [2] was 0.8 and the “Binding of Control serum LUMC to linear peptides” value [2] was 0.7. The “Binding of Control serum LUMC to looped peptides” value [2] was 0.8, the “Binding of a rabbit serum to linear peptides of protein N of SARS-CoV Urbani (Rabbit serum linear peptides)” value (“Binding … (Rabbit serum linear peptides)” for short) [3] was 0.3 and the “Binding of a rabbit serum to looped/cyclic peptides of protein N of SARS-CoV Urbani (Rabbit serum looped peptides)” value [3] was 0.4. For the same sequence, the “Binding of antibody 03-018 to linear peptides of the N protein of SARS-CoV Urbani” value [4] was 0.1 and the “Binding of antibody 03-018 to looped/cyclic peptides of the N protein of SARS-CoV Urbani” value [4] was 0.1.

For GALNTPKDHIGTRNP, the “Binding of serum 1a to linear peptides of protein N of SARS-CoV Urbani” value [1] was 0.3, the “Binding of serum 1a to looped/cyclic peptides of protein N of SARS-CoV Urbani” value [1] was 0.2 and the “Binding of serum 1b to linear peptides of protein N of SARS-CoV Urbani” value [1] was 0.1. The “Binding of serum 1b to looped/cyclic peptides of protein N of SARS-CoV Urbani” value [1] was 0.1, the “Binding of serum 2 to linear peptides of protein N of SARS-CoV Urbani” value [1] was 0.2 and the “Binding of serum 2 to looped/cyclic peptides of protein N of SARS-CoV Urbani” value [1] was 0.5. For the same sequence, the “Binding of serum 6 to linear peptides of protein N of SARS-CoV Urbani” value [1] was 0.2, the “Binding of serum 6 to looped/cyclic peptides of protein N of SARS-CoV Urbani” value [1] was 0.2 and the “Binding of serum 37 to linear peptides of protein N of SARS-CoV Urbani” value [1] was 0.7. For the same sequence, the “Binding of serum 37 to looped/cyclic peptides of protein N of SARS-CoV Urbani” value [1] was 0.5, the “Binding of serum 62 to linear peptides of protein N of SARS-CoV Urbani” value [1] was 0.7 and the “Binding of serum 62 to looped/cyclic peptides of protein N of SARS-CoV Urbani” value [1] was 0.3. For the same sequence, the “Binding of serum London to linear peptides of protein N of SARS-CoV Urbani” value [1] was 0.5, the “Binding of serum London to looped/cyclic peptides of protein N of SARS-CoV Urbani” value [1] was 0.4 and the “Binding of serum SARS-green to linear peptides of protein N of SARS-CoV Urbani” value [1] was 0.4. For the same sequence, the “Binding of serum SARS-green to looped/cyclic peptides of protein N of SARS-CoV Urbani” value [1] was 0.2, the “Binding of serum SARS-yellow to linear peptides of protein N of SARS-CoV Urbani” value [1] was 0.7 and the “Binding of serum SARS-yellow to looped/cyclic peptides of protein N of SARS-CoV Urbani” value [1] was 0.2. The “Binding of Control Serum Blood-Bank to Looped peptides” value [2] was 0.5, the “Binding of Control serum Blood-bank to linear peptides” value [2] was 0.7 and the “Binding of Control serum LUMC to linear peptides” value [2] was 0.6. For the same sequence, the “Binding of Control serum LUMC to looped peptides” value [2] was 0.4, the “Binding … (Rabbit serum linear peptides)” value [3] was 0.2 and the “Binding of a rabbit serum to looped/cyclic peptides of protein N of SARS-CoV Urbani (Rabbit serum looped peptides)” value [3] was 0.0. For the same sequence, the “Binding of antibody 03-018 to linear peptides of the N protein of SARS-CoV Urbani” value [4] was 0.1 and the “Binding of antibody 03-018 to looped/cyclic peptides of the N protein of SARS-CoV Urbani” value [4] was 0.2.

With GDGKMKELSPRWYFY the “Binding of serum 1a to linear peptides of protein N of SARS-CoV Urbani” value [1] was 0.2, the “Binding of serum 1a to looped/cyclic peptides of protein N of SARS-CoV Urbani” value [1] was 0.4 and the “Binding of serum 1b to linear peptides of protein N of SARS-CoV Urbani” value [1] was 0.1. For the same sequence, the “Binding of serum 1b to looped/cyclic peptides of protein N of SARS-CoV Urbani” value [1] was 0.3, the “Binding of serum 2 to linear peptides of protein N of SARS-CoV Urbani” value [1] was 0.2 and the “Binding of serum 2 to looped/cyclic peptides of protein N of SARS-CoV Urbani” value [1] was 0.6. For the same sequence, the “Binding of serum 6 to linear peptides of protein N of SARS-CoV Urbani” value [1] was 0.1, the “Binding of serum 6 to looped/cyclic peptides of protein N of SARS-CoV Urbani” value [1] was 0.3 and the “Binding of serum 37 to linear peptides of protein N of SARS-CoV Urbani” value [1] was 0.5. For the same sequence, the “Binding of serum 37 to looped/cyclic peptides of protein N of SARS-CoV Urbani” value [1] was 0.7, the “Binding of serum 62 to linear peptides of protein N of SARS-CoV Urbani” value [1] was 0.6 and the “Binding of serum 62 to looped/cyclic peptides of protein N of SARS-CoV Urbani” value [1] was 0.6. The “Binding of serum London to linear peptides of protein N of SARS-CoV Urbani” value [1] was 0.4, the “Binding of serum London to looped/cyclic peptides of protein N of SARS-CoV Urbani” value [1] was 0.5 and the “Binding of serum SARS-green to linear peptides of protein N of SARS-CoV Urbani” value [1] was 0.3. The “Binding of serum SARS-green to looped/cyclic peptides of protein N of SARS-CoV Urbani” value [1] was 0.5, the “Binding of serum SARS-yellow to linear peptides of protein N of SARS-CoV Urbani” value [1] was 0.6 and the “Binding of serum SARS-yellow to looped/cyclic peptides of protein N of SARS-CoV Urbani” value [1] was 0.7. For the same sequence, the “Binding of Control Serum Blood-Bank to Looped peptides” value [2] was 0.7, the “Binding of Control serum Blood-bank to linear peptides” value [2] was 0.6 and the “Binding of Control serum LUMC to linear peptides” value [2] was 0.6. For the same sequence, the “Binding of Control serum LUMC to looped peptides” value [2] was 0.8, the “Binding … (Rabbit serum linear peptides)” value [3] was 0.2 and the “Binding of a rabbit serum to looped/cyclic peptides of protein N of SARS-CoV Urbani (Rabbit serum looped peptides)” value [3] was 0.6. The “Binding of antibody 03-018 to linear peptides of the N protein of SARS-CoV Urbani” value [4] was 0.1 and the “Binding of antibody 03-018 to looped/cyclic peptides of the N protein of SARS-CoV Urbani” value [4] was 0.2.
